Entries after “also recorded” stand apart in the source; their conditions may differ. Like-named read-outs stand apart in the source and are kept apart here.
Assays:
[1] = molecular target: LCK (Homo sapiens, UniProt P06239); assay: SelectScreen kinase profiling; format: biochemical; settings: average of duplicate
[2] = molecular target: SRC (Homo sapiens, UniProt P12931); assay: SelectScreen kinase profiling / Z′-Lyte kinase assay
[3] = molecular target: BTK (Homo sapiens, UniProt Q06187); assay: as above
BTK, sequence (Q06187 whole entry): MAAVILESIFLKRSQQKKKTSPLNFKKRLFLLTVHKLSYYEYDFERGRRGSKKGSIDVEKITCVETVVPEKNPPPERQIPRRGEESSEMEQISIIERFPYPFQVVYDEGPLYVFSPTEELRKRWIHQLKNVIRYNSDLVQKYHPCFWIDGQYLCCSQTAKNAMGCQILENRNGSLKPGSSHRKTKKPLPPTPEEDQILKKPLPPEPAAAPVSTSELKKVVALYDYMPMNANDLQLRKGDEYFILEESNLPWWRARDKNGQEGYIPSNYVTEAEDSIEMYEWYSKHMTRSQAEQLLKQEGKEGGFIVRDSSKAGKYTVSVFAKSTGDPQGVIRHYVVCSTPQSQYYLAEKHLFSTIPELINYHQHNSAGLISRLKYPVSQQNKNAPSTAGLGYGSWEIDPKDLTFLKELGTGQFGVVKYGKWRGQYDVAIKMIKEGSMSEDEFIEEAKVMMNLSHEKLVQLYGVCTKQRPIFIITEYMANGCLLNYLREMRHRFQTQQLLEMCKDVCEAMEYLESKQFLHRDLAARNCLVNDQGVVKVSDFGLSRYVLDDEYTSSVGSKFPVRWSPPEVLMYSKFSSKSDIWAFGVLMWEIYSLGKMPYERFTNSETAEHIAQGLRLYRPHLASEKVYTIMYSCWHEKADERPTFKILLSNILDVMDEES

[4] = molecular target: YES1 (Homo sapiens, UniProt P07947); assay: SelectScreen kinase profiling; format: biochemical; settings: average of duplicate
[5] = molecular target: CSK (Homo sapiens, UniProt P41240); assay: SelectScreen kinase profiling; format: biochemical; settings: average of duplicate
[6] = molecular target: FGFR1 (Homo sapiens, UniProt P11362); assay: SelectScreen kinase profiling; format: biochemical; settings: average of duplicate
[7] = molecular target: BLK (Homo sapiens, UniProt P51451); assay: SelectScreen kinase profiling / Z′-Lyte kinase assay
BLK, sequence (P51451 whole entry): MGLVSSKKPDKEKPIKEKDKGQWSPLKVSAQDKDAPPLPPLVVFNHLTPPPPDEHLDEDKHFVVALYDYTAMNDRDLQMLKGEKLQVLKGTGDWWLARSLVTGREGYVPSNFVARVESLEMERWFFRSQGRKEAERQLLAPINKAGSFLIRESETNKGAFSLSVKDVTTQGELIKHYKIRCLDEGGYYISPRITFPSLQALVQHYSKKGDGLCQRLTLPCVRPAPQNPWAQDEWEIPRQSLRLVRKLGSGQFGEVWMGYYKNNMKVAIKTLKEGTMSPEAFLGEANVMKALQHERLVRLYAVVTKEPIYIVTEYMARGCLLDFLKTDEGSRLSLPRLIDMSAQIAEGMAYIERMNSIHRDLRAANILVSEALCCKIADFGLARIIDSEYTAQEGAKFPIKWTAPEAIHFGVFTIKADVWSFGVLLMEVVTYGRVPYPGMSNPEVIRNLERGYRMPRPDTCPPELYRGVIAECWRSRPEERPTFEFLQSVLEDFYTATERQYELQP

[8] = molecular target: TNK1 (Homo sapiens, UniProt Q13470); assay: SelectScreen kinase profiling; format: biochemical; settings: average of duplicate
TNK1, sequence (Q13470 whole entry): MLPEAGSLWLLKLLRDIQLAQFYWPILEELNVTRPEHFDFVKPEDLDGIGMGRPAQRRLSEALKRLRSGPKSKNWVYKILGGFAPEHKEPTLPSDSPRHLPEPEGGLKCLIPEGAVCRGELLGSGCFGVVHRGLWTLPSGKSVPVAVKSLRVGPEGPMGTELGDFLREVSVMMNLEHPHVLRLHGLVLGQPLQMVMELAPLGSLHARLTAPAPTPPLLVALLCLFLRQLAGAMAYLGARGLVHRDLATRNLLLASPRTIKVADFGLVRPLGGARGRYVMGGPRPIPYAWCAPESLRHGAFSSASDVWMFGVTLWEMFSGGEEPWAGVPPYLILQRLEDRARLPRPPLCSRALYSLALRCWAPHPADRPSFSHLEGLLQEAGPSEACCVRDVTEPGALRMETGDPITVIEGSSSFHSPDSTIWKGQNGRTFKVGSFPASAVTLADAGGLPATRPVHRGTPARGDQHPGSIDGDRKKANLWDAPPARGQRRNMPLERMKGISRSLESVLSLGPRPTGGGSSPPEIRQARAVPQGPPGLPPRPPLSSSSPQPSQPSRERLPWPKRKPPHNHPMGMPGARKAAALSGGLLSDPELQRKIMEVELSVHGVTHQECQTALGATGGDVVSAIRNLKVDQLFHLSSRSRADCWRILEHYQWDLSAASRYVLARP

[9] = molecular target: SRMS (Srm) (Homo sapiens, UniProt Q9H3Y6); assay: SelectScreen kinase profiling; format: biochemical; settings: average of duplicate
[10] = molecular target: ABL2 (Arg) (Homo sapiens, UniProt P42684); assay: SelectScreen kinase profiling; format: biochemical; settings: average of duplicate
ABL2 (Arg), sequence (P42684 whole entry): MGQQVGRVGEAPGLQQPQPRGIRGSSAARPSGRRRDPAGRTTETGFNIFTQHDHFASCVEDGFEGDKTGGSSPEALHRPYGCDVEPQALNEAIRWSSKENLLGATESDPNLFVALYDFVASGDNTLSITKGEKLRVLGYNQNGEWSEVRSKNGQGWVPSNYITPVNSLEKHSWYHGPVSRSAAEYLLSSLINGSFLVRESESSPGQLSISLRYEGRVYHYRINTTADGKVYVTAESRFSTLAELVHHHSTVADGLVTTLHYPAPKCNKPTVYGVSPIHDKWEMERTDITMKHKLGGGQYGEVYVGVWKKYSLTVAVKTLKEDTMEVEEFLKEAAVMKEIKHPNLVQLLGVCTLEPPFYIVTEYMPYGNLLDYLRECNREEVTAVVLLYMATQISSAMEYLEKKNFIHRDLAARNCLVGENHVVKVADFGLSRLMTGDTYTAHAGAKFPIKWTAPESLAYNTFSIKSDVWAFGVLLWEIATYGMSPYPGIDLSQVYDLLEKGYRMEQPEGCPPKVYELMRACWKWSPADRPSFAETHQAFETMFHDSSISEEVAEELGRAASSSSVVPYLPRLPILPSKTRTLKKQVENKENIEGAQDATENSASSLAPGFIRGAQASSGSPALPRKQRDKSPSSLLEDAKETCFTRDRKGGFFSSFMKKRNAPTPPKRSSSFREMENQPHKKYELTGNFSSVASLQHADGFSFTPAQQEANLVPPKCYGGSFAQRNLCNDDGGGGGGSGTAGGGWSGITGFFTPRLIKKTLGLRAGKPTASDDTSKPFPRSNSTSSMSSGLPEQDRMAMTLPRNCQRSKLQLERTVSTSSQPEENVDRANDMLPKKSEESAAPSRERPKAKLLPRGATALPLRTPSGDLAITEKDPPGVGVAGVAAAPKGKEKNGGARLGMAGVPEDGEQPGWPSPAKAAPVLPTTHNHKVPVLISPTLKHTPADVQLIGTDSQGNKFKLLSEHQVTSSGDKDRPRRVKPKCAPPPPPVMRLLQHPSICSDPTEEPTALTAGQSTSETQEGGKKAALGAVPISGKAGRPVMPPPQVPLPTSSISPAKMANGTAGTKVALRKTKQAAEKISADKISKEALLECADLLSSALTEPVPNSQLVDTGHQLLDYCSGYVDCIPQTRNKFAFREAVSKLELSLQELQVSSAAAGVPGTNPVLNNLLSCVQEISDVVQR

[11] = molecular target: T1, ITK (Homo sapiens, UniProt Q08881); assay: SelectScreen kinase profiling / Z′-Lyte kinase assay
T1 sequence (Q08881 1-620): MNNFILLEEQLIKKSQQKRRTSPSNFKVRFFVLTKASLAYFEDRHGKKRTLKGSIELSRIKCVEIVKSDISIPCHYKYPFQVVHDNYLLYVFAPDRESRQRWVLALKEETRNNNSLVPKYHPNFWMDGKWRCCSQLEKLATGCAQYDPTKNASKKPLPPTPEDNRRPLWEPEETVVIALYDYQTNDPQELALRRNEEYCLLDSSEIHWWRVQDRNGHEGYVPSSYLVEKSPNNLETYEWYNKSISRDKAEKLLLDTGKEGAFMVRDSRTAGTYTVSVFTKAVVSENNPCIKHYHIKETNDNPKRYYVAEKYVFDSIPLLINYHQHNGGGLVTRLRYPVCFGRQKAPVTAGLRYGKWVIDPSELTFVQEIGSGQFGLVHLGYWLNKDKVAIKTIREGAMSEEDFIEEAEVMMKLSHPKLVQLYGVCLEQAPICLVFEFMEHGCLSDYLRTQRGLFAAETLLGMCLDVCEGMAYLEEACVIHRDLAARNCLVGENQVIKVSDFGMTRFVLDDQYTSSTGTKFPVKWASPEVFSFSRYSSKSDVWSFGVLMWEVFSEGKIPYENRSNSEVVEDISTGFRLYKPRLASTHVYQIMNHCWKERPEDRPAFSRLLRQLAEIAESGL

[12] = molecular target: LYN B (Homo sapiens, UniProt P07948); assay: SelectScreen kinase profiling; format: biochemical; settings: average of duplicate
[13] = molecular target: KDR (VEGFR2) (Homo sapiens, UniProt P35968); assay: SelectScreen kinase profiling; format: biochemical; settings: average of duplicate
KDR (VEGFR2), sequence (P35968 20-1356): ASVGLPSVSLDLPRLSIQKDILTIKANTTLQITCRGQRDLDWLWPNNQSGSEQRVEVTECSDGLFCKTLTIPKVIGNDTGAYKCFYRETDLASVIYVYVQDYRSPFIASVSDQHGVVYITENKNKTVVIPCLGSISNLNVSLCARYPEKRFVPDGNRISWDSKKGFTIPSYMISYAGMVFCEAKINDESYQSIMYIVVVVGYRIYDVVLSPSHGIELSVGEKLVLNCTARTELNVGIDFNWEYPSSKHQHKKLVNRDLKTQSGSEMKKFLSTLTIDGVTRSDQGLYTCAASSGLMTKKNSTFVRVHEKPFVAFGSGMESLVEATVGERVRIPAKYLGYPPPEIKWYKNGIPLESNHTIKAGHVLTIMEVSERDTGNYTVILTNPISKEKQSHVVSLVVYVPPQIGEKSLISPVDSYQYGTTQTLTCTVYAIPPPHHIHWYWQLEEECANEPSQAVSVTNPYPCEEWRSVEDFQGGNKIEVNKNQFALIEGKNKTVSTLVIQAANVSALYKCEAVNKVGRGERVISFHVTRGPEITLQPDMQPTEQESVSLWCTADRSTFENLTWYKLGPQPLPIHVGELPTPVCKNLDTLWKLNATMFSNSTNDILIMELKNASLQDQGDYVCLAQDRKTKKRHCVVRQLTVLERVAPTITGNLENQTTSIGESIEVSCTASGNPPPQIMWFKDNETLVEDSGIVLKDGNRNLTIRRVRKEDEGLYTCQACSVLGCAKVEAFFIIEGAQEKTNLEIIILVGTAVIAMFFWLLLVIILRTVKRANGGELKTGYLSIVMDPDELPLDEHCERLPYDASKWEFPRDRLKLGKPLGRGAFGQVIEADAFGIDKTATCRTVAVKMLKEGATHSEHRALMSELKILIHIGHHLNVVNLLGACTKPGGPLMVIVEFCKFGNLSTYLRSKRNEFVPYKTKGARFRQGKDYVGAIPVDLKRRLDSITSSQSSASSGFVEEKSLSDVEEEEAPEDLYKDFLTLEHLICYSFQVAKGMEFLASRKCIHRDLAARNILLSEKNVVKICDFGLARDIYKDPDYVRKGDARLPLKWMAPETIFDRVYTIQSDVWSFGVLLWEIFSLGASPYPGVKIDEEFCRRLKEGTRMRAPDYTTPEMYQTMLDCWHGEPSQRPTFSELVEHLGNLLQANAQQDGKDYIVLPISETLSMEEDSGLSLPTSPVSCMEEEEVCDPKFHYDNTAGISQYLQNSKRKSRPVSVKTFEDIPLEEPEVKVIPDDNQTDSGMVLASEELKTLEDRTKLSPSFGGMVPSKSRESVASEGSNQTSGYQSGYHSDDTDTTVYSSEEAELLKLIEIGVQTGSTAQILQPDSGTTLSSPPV

[14] = molecular target: EGFR (ErbB1) L858R (Homo sapiens, UniProt P00533, L858R); assay: SelectScreen kinase profiling; format: biochemical; settings: average of duplicate
[15] = BTK selectivity from IC50 values

SRC, sequence (P12931 whole entry): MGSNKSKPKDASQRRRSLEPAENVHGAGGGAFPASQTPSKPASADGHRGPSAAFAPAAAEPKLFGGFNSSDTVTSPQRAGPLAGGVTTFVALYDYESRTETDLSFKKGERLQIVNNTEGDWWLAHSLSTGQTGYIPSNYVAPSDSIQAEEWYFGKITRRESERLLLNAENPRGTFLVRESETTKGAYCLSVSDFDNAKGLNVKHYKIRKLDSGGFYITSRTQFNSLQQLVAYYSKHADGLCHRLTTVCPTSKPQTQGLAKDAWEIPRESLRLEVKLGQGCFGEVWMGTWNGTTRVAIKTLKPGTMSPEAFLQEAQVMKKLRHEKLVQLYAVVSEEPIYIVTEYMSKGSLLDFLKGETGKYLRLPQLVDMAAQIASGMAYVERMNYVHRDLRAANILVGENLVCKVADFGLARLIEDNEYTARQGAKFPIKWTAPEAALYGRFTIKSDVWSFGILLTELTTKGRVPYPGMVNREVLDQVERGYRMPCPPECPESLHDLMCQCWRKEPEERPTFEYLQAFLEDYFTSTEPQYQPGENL

inhibition at 1 µM [1]: 74% | IC50 [2]: 1710 nM | inhibition at 1 µM [2]: 43% | SRC, BTK/Kinase [2, 15]: 134 x | Hillslope ([2]; SRC IC50 curve): 0.49 | inhibition at 0.000495 µM ([2]; read-out: % Inhibition Point 1): 2% | inhibition at 0.00152 µM ([2]; read-out: % Inhibition Point 1): 15% | inhibition at 0.00457 µM ([2]; read-out: % Inhibition Point 1): 19% | inhibition at 0.0137 µM ([2]; read-out: % Inhibition Point 1): 23% | inhibition at 0.0412 µM ([2]; read-out: % Inhibition Point 1): 19% | inhibition at 0.123 µM ([2]; read-out: % Inhibition Point 1): 30% | inhibition at 0.37 µM ([2]; read-out: % Inhibition Point 1): 38% | inhibition at 1.11 µM ([2]; read-out: % Inhibition Point 1): 57% | inhibition at 3.33 µM ([2]; read-out: % Inhibition Point 1): 76% | inhibition at 10 µM ([2]; read-out: % Inhibition Point 1): 80% | inhibition at 0.000495 µM ([2]; read-out: % Inhibition Point 2): -2% | inhibition at 0.00152 µM ([2]; read-out: % Inhibition Point 2): 9% | inhibition at 0.00457 µM ([2]; read-out: % Inhibition Point 2): 20% | inhibition at 0.0137 µM ([2]; read-out: % Inhibition Point 2): 18% | inhibition at 0.0412 µM ([2]; read-out: % Inhibition Point 2): 20% | inhibition at 0.123 µM ([2]; read-out: % Inhibition Point 2): 28% | inhibition at 0.37 µM ([2]; read-out: % Inhibition Point 2): 42% | inhibition at 1.11 µM ([2]; read-out: % Inhibition Point 2): 58% | inhibition at 3.33 µM ([2]; read-out: % Inhibition Point 2): 81% | inhibition at 10 µM ([2]; read-out: % Inhibition Point 2): 88% | remaining activity at 1 µM ([2]; read-out: SRC percent of control): 57% | inhibition at 1 µM [3]: 100% | IC50 ([3]; BTK IC50, Z′-Lyte, [ATP] Km app, 1 h incubation, duplicate): 12.8 nM | Hillslope ([3]; BTK IC50 curve): 1.25 | inhibition at 0.000495 µM ([3]; read-out: % Inhibition Point 1): -4% | inhibition at 0.00152 µM ([3]; read-out: % Inhibition Point 1): 11% | inhibition at 0.00457 µM ([3]; read-out: % Inhibition Point 1): 23% | inhibition at 0.0137 µM ([3]; read-out: % Inhibition Point 1): 49% | inhibition at 0.0412 µM ([3]; read-out: % Inhibition Point 1): 84% | inhibition at 0.123 µM ([3]; read-out: % Inhibition Point 1): 97% | inhibition at 0.37 µM ([3]; read-out: % Inhibition Point 1): 98% | inhibition at 1.11 µM ([3]; read-out: % Inhibition Point 1): 100% | inhibition at 3.33 µM ([3]; read-out: % Inhibition Point 1): 98% | inhibition at 10 µM ([3]; read-out: % Inhibition Point 1): 98% | inhibition at 0.000495 µM ([3]; read-out: % Inhibition Point 2): 1% | inhibition at 0.00152 µM ([3]; read-out: % Inhibition Point 2): 5% | inhibition at 0.00457 µM ([3]; read-out: % Inhibition Point 2): 22% | inhibition at 0.0137 µM ([3]; read-out: % Inhibition Point 2): 49% | inhibition at 0.0412 µM ([3]; read-out: % Inhibition Point 2): 80% | inhibition at 0.123 µM ([3]; read-out: % Inhibition Point 2): 96% | inhibition at 0.37 µM ([3]; read-out: % Inhibition Point 2): 98% | inhibition at 1.11 µM ([3]; read-out: % Inhibition Point 2): 102% | inhibition at 3.33 µM ([3]; read-out: % Inhibition Point 2): 97% | inhibition at 10 µM ([3]; read-out: % Inhibition Point 2): 99% | inhibition at 1 µM [4]: 45% | inhibition at 1 µM [5]: 15% | inhibition at 1 µM [6]: -1% | inhibition at 1 µM [7]: 100% | IC50 ([7]; BLK IC50, Z′-Lyte, [ATP] Km app, 1 h incubation, duplicate): 35.6 nM | Hillslope ([7]; BLK IC50 curve): 1.08 | BLK, BTK/Kinase [7, 15]: 2.8 x | inhibition at 0.000495 µM ([7]; read-out: % Inhibition Point 1): -5% | inhibition at 0.00152 µM ([7]; read-out: % Inhibition Point 1): 5% | inhibition at 0.00457 µM ([7]; read-out: % Inhibition Point 1): 13% | inhibition at 0.0137 µM ([7]; read-out: % Inhibition Point 1): 30% | inhibition at 0.0412 µM ([7]; read-out: % Inhibition Point 1): 56% | inhibition at 0.123 µM ([7]; read-out: % Inhibition Point 1): 77% | inhibition at 0.37 µM ([7]; read-out: % Inhibition Point 1): 98% | inhibition at 1.11 µM ([7]; read-out: % Inhibition Point 1): 101% | inhibition at 3.33 µM ([7]; read-out: % Inhibition Point 1): 101% | inhibition at 10 µM ([7]; read-out: % Inhibition Point 1): 101% | inhibition at 0.000495 µM ([7]; read-out: % Inhibition Point 2): 8% | inhibition at 0.00152 µM ([7]; read-out: % Inhibition Point 2): -3% | inhibition at 0.00457 µM ([7]; read-out: % Inhibition Point 2): 7% | inhibition at 0.0137 µM ([7]; read-out: % Inhibition Point 2): 24% | inhibition at 0.0412 µM ([7]; read-out: % Inhibition Point 2): 55% | inhibition at 0.123 µM ([7]; read-out: % Inhibition Point 2): 82% | inhibition at 0.37 µM ([7]; read-out: % Inhibition Point 2): 96% | inhibition at 1.11 µM ([7]; read-out: % Inhibition Point 2): 101% | inhibition at 3.33 µM ([7]; read-out: % Inhibition Point 2): 102% | inhibition at 10 µM ([7]; read-out: % Inhibition Point 2): 101% | inhibition at 1 µM [8]: 2% | inhibition at 1 µM [9]: 22% | inhibition at 1 µM [10]: 0% | IC50 [11]: > 10000 nM | inhibition at 1 µM [11]: 8% | ITK, BTK/Kinase [11, 15]: > 781 x | Hillslope ([11]; ITK IC50 curve): 1.28 | inhibition at 0.00457 µM ([11]; read-out: % Inhibition Point 1): -1% | inhibition at 0.0137 µM ([11]; read-out: % Inhibition Point 1): -4% | inhibition at 0.0412 µM ([11]; read-out: % Inhibition Point 1): -4% | inhibition at 0.123 µM ([11]; read-out: % Inhibition Point 1): -2% | inhibition at 0.37 µM ([11]; read-out: % Inhibition Point 1): 5% | inhibition at 1.11 µM ([11]; read-out: % Inhibition Point 1): 8% | inhibition at 3.33 µM ([11]; read-out: % Inhibition Point 1): 13% | inhibition at 10 µM ([11]; read-out: % Inhibition Point 1): 51% | inhibition at 0.000495 µM ([11]; read-out: % Inhibition Point 2): 7% | inhibition at 0.00152 µM ([11]; read-out: % Inhibition Point 2): -5% | inhibition at 0.00457 µM ([11]; read-out: % Inhibition Point 2): -1% | inhibition at 0.0137 µM ([11]; read-out: % Inhibition Point 2): 1% | inhibition at 0.0412 µM ([11]; read-out: % Inhibition Point 2): -2% | inhibition at 0.123 µM ([11]; read-out: % Inhibition Point 2): 0% | inhibition at 0.37 µM ([11]; read-out: % Inhibition Point 2): 5% | inhibition at 1.11 µM ([11]; read-out: % Inhibition Point 2): 4% | inhibition at 3.33 µM ([11]; read-out: % Inhibition Point 2): 16% | inhibition at 10 µM ([11]; read-out: % Inhibition Point 2): 47% | inhibition at 1 µM [12]: 28% | inhibition at 1 µM [13]: 5% | inhibition at 1 µM [14]: 2%
Structure (SMILES): C=CC(=O)N1CCCC(n2nc(-c3c(C)cc(Oc4ccccc4)cc3C)c3c(N)ncnc32)C1 (stereo in doubt) [Compound 3]
ITK IC50 ([11]; Z′-Lyte, [ATP] Km app, 1 h incubation, duplicate): no observable activities; also recorded: no observable ITK activity
